Among the data in patent US5556979A, “7-isoindolinyl-naphthyridone derivatives, compositions and anti-bacterial use thereof” (Bayer Aktiengesellschaft, priority 1992, dated 1996) are MIC values, retold here.

Structures are written as SMILES. ≈ marks a conversion by molar mass, not a printed value.

Holding throughout (test): Minimum inhibitory concentration (MIC), serial dilution on Iso-Sensitest agar
Common to all, as to format: cell-based

One assay has as its system Providencia sp. 12012. Particulars: 37° C., about 20 hours. Here is the method:
(§1) The minimum inhibitory concentrations (MIC) were determined by means of serial dilution methods on Iso-Sensitest agar (Oxoid). For each substance to be tested, a series of agar plates was prepared which contained concentrations of the active compound which decreased by a double dilution on each occasion. The agar plates were inoculated with a Multipoint inoculator (Denley). For the inoculation, overnight cultures of the pathogens were used which had previously been diluted so that each inoculation spot contained about 10^4 colony-forming particles. The inoculated agar plates were incubated at 37° C. and the organism growth was recorded after about 20 hours. The MIC value (μg/ml) indicates the lowest concentration of active compound at which no growth could be detected with the naked eye.

Assay [1] deals with Entercoccus faecalis 27 101. Particulars: 37° C., about 20 hours. Here is the method: as §1
The subject of assay [2] is Enterobacter cloacae 2427. Particulars: 37° C., about 20 hours. Here is the method:
as §1

The test system of assay [3] is Pseudomonas aeruginosa Walter. Particulars: 37° C., about 20 hours. Here is the method:
as §1

In assay [4] the test system is Staphylococcus aureus 1756. Particulars: 37° C., about 20 hours. Here is the method:
as §1

The next assay relates to Klebsiella sp. 8085. Particulars: 37° C., about 20 hours. Here is the method:
as §1

In another assay the test system is Morganella morg. 932. Particulars: 37° C., about 20 hours. Here is the method:
as §1

Another assay relates to Micrococcus luteus 9341. Particulars: 37° C., about 20 hours. Here is the method: as §1
Assay [5] deals with Staphylococcus aureus ICB 25701. Particulars: ICB25701, 37° C., about 20 hours. Here is the method:
as §1

The next assay deals with E. coli Neumann. Particulars: Escherichia coli, 37° C., about 20 hours. Here is the method: as §1

For `N[C@@H]1CC=C[C@@H]2CN(c3c(F)cc4c(=O)c(C(=O)O)cn(C5CC5)c4c3Cl)C[C@@H]12` (relative stereo) [Example 12, (1'SR,2'RS,6'SR)-7-(2'-Amino-8'-azabicyclo[4.3.0]non-4'-en-8'-yl)-8-chloro-1-cyclopropyl-6-fluoro-1,4-dihydro-4-oxo-3-quinolinecarboxylic acid], the MIC in the assay on Providencia sp. 12012 is 0.015 mg/L (≈ 0.0359 µM); in [1], 0.0078 mg/L (≈ 0.0187 µM); in assay [2], 0.015 mg/L (≈ 0.0359 µM); in assay [3] it was 0.25 mg/L (≈ 0.598 µM); in [4] it was ≤ 0.0019 mg/L; with Klebsiella sp. 8085, 0.015 mg/L (≈ 0.0359 µM). The MIC came to 0.015 mg/L (≈ 0.0359 µM) with Morganella morg. 932, 0.015 mg/L (≈ 0.0359 µM) in the assay with Micrococcus luteus 9341, 0.015 mg/L (≈ 0.0359 µM) in [5] and 0.0039 mg/L (≈ 0.00933 µM) against E. coli Neumann.
On to `N[C@@H]1CC=C[C@@H]2CN(c3c(F)cc4c(=O)c(C(=O)O)cn(C5CC5)c4c3F)C[C@@H]12` (relative stereo) [Example 4, (1'SR,2'RS,6'SR)-7-(2'-Amino-8'-azabicyclo[4.3.0]non-4'-en-8'-yl)-1-cyclopropyl-6,8-difluoro-1,4-hydro-4-oxo-3-quinolinecarboxylic acid], for which the MIC with Providencia sp. 12012 amounted to 0.015 mg/L (≈ 0.0374 µM); in [1], 0.15 mg/L (≈ 0.374 µM); in assay [2] it was 0.015 mg/L (≈ 0.0374 µM); in assay [3] it was 0.25 mg/L (≈ 0.623 µM); in [4], 0.0039 mg/L (≈ 0.00972 µM); against Klebsiella sp. 8085, 0.015 mg/L (≈ 0.0374 µM). The MIC is 0.015 mg/L (≈ 0.0374 µM) with Morganella morg. 932, 0.015 mg/L (≈ 0.0374 µM) in the assay on Micrococcus luteus 9341, 0.03 mg/L (≈ 0.0747 µM) in assay [5] and 0.0078 mg/L (≈ 0.0194 µM) against E. coli Neumann.
In the case of `Nc1c(F)c(N2C[C@H]3[C@H](N)CC=C[C@@H]3C2)c(F)c2c1c(=O)c(C(=O)O)cn2C1CC1` (relative stereo) [Example 19, (1 'SR,2 'RS,6 'SR)-5-Amino-7-(2 '-amino-8 '-azabicyclo[4.3.0]non-4'-en-8'-yl)-1-cyclopropyl-6,8-difluoro-1,4-dihydro-4-oxo-3-quinolinecarboxylic acid], the MIC was ≤ 0.015 mg/L in the assay with Providencia sp. 12012; ≤ 0.015 mg/L in assay [1]; 0.03 mg/L (≈ 0.072 µM) in [2]; 1 mg/L (≈ 2.4 µM) in [3]; ≤ 0.015 mg/L in assay [4]; 0.03 mg/L (≈ 0.072 µM) against Klebsiella sp. 8085. Further, the MIC was 0.03 mg/L (≈ 0.072 µM) against Morganella morg. 932, 0.06 mg/L (≈ 0.144 µM) against Micrococcus luteus 9341, 0.03 mg/L (≈ 0.072 µM) in assay [5] and ≤ 0.015 mg/L against E. coli Neumann.
Take `CN[C@@H]1CC=C[C@@H]2CN(c3c(F)cc4c(=O)c(C(=O)O)cn(C5CC5)c4c3F)C[C@H]21` (relative stereo) [Example 22, (1'SR,2'RS,6'SR)-1-Cyclopropyl-6,8-difluoro-1,4-dihydro-7-(2'-methylamino-8'-azabicyclo[4.3-0]non-4'-en-8'-yl)-4-oxo-3-quinolinecarboxylic acid]: the MIC was 0.125 mg/L (≈ 0.301 µM) with Providencia sp. 12012; 0.03 mg/L (≈ 0.0722 µM) in [1]; 0.125 mg/L (≈ 0.301 µM) in assay [2]; 2 mg/L (≈ 4.81 µM) in [3]; ≤ 0.015 mg/L in assay [4]; 0.06 mg/L (≈ 0.144 µM) against Klebsiella sp. 8085. For the same compound, the MIC stood at 0.125 mg/L (≈ 0.301 µM) in the assay with Morganella morg. 932, 0.125 mg/L (≈ 0.301 µM) with Micrococcus luteus 9341, 0.125 mg/L (≈ 0.301 µM) in [5] and 0.03 mg/L (≈ 0.0722 µM) with E. coli Neumann.
In the case of `Nc1cccc2c1CN(c1c(F)cc3c(=O)c(C(=O)O)cn(C4CC4)c3c1F)C2` [*, 7-(4-amino-1,3-dihydro-isoindol-2-yl)-1-cyclopropyl-6,8-difluoro-1,4-dihydro-4-oxo-3-quinolinecarboxylic acid, reference compound], the MIC is 1 mg/L (≈ 2.52 µM) against Providencia sp. 12012; 0.5 mg/L (≈ 1.26 µM) in assay [1]; > 128 mg/L in assay [3]; 0.03 mg/L (≈ 0.0755 µM) in [4]; 4 mg/L (≈ 10.1 µM) in the assay on Klebsiella sp. 8085; 1 mg/L (≈ 2.52 µM) in the assay with Morganella morg. 932. In addition, the MIC in the assay with E. coli Neumann came out at 0.5 mg/L (≈ 1.26 µM).
Turning to `N[C@@H]1CC=C[C@@H]2CN(c3cc4c(cc3F)c(=O)c(C(=O)O)cn4C3CC3)C[C@@H]12` (relative stereo) [Example 6, (1'SR,2'RS,6'SR)-7-(2'-amino-8'-azahicyclo[4.3.0]non-4'-en-8'-yl)-1-cyclopropyl-6-fluoro-1,4-dihydro-4-oxo-3-quinolinecarboxylic acid], the MIC against Providencia sp. 12012 was 0.03 mg/L (≈ 0.0782 µM); in assay [1], 0.03 mg/L (≈ 0.0782 µM); in [2], 0.06 mg/L (≈ 0.156 µM); in assay [3], 0.5 mg/L (≈ 1.3 µM); in assay [4], ≤ 0.015 mg/L; in the assay on Klebsiella sp. 8085, 0.03 mg/L (≈ 0.0782 µM). In addition, the MIC in the assay on Micrococcus luteus 9341 was 0.06 mg/L (≈ 0.156 µM); in [5] it was 0.125 mg/L (≈ 0.326 µM); against E. coli Neumann it was ≤ 0.015 mg/L.
Regarding `CC1COc2c(N3C[C@H]4[C@H](N)CC=C[C@@H]4C3)c(F)cc3c(=O)c(C(=O)O)cn1c23` (stereo partly drawn) [Example 14, (1'SR,2'RS,6'SR)-10-(2'-Amino-8'-azabicyclo [4.3.0]non-4'-en-8'-yl)-9-fluoro-2,3-dihydro-3-methyl-7-oxo-7H-pyrido[1,2,3-de][1,4]benzoxazine-6-carboxylic acid], the MIC in the assay on Providencia sp. 12012 was found to be 0.125 mg/L (≈ 0.313 µM); in assay [1] it was 0.03 mg/L (≈ 0.0751 µM); in assay [2] it was 0.125 mg/L (≈ 0.313 µM); in assay [3], 1 mg/L (≈ 2.5 µM); in [4], 0.0078 mg/L (≈ 0.0195 µM); in the assay on Klebsiella sp. 8085, 0.125 mg/L (≈ 0.313 µM). The MIC in the assay with Morganella morg. 932 came out at 0.125 mg/L (≈ 0.313 µM); in the assay with Micrococcus luteus 9341, 0.125 mg/L (≈ 0.313 µM); in assay [5], 0.25 mg/L (≈ 0.626 µM); against E. coli Neumann, 0.03 mg/L (≈ 0.0751 µM).

The MIC is the lowest concentration that inhibits growth of the organism.
